Assay results as given in patent US11352350B2, “IRAK degraders and uses thereof” (Kymera Therapeutics, Inc., priority 2018, dated 2022).
Where two headings read alike, the source gives them in different places.

Key:
[1] = system: OCI-LY10; assay: CTG Cell Viability Assay - OCI-LY10; format: cell-based, human; conditions: OCI-LY10, 4 days, read-out: CTG Cell Viability Assay - OCI-LY10: Average external-IC50
Protocol: Compound-mediated viability effect on OCI-LY10 or TMD8 was quantitatively determined using the CellTiter-Glo® Luminescent Cell Viability Assay kit from Promega (Catalog number G7570) following manufacturer's recommended procedures. […] Compounds were then added to the assay plate with final top concentration of 10 μM and 1:3 dilution series with total of 9 doses. The final DMSO concentration was normalized to 0.2%. The assay plates were incubated at 37° C. for 4 days under 5% CO2. Then the assay plate was equilibrated at room temperature for 10 minutes. […] The data was then analyzed by software Prism 7.0 from GraphPad and the dose response curves were fit using a three-parameter logistic equation to calculate IC50.

[2] = target: IRAK4 (Homo sapiens (Human), UniProt Q9NWZ3); assay: IRAK4 MSD degradation in OCI-LY10; format: cell-based
Chain of IRAK4 (Q9NWZ3 whole entry): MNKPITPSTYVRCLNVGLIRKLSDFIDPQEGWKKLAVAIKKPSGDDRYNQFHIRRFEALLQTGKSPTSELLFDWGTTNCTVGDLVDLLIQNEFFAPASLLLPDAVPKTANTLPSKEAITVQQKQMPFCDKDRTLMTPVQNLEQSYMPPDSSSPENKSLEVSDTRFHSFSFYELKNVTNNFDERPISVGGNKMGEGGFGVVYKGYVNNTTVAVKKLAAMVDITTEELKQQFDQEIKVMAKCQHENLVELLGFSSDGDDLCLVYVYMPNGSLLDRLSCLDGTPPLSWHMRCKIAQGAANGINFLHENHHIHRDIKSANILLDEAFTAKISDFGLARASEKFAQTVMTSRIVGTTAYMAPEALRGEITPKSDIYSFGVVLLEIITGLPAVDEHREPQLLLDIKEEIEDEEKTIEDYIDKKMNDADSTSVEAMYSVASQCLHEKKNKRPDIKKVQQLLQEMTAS
Protocol: Degradation of IRAK4 in OCI-LY10 was quantitatively measured using Meso Scale Discovery technology. […] Compounds were then added to the assay plates with a final top concentration of 1 to 10 μM in a 1:3 dilution series with total of 8 doses. The assay plates were then incubated for 4 to 24 hours at 37° C. under 5% CO2. […] To prepare MSD assay plates (Meso Scale Discovery Catalog number L15XA-3), the plates were coated with […] capture antibody (mouse Anti-IRAK4 antibody [2H9], ab119942) in PBS, at 40 μL/well. […] Cell lysates were then added to MSD assay plates and the plates were incubated at room temperature for 1 hour. The plates were then washed 3 times with 150 μL/well TBST buffer and 25 μL/well primary detection antibody (rabbit Anti-IRAK4 antibody [Y279], from Abcam. Catalog number ab32511, […]). The assay plates were then incubated at room temperature for 1 hour, washed 3 times with 150 μL/well TBST buffer and 25 µL/well secondary detection antibody, SULFO-TAG anti-rabbit antibody were added (anti rabbit antibody from Meso Scale Discovery, Catalog number R32AB-1, 1 μg/mL). The assay plates were then incubated at room temperature for 1 hour, washed 3 times with 150 μL/well TB ST buffer, and 150 μL/well MSD reading buffer (Meso Scale Discovery catalog number R92TC-2) was added. The plates were then analyzed by a MSD reader (Meso Scale Discovery, Model Quick Plex SQ 120). The data was then analyzed by software Prism 7.0 from GraphPad and the dose-depended IRAK4 degradation were fit using a three-parameter logistic equation to calculate DC50.

[3] = OCI-LY10, 4 hrs, MSD, read-out: IRAK4 MSD degradation in OCI-LY10 at 4 hrs: Average external-Abs DC50
[4] = OCI-LY10, 24 hrs, MSD, read-out: IRAK4 MSD degradation in OCI-LY10 at 24 hrs: Average external-Abs DC50
[5] = OCI-LY10, 4 hrs, read-out: IRAK4 MSD degradation in OCI-LY10 at 4 hrs: DC50
[6] = OCI-LY10, 24 hrs, read-out: IRAK4 MSD degradation in OCI-LY10 at 24 hrs: DC50

SMILES | IC50 ([1]; Homo sapiens, OCI-Ly10, 96 h) | DC50 [2, 3] | also measured
CC[C@@H]1[C@H](F)C(=O)N[C@@H]1COc1ncc(C#CC2CCN(CCCC3CCN(Cc4ccc5c(c4)n(C)c(=O)n5C4CCC(=O)NC4=O)CC3)CC2)c2cc(C(N)=O)c(OC)cc12 (stereo partly shown) [I-193] | > 1 µM | 0.1 to 1 µM | DC50 [2, 4]: 0.01 to 0.1 µM
CN(C[C@H]1CC[C@H](n2cc(NC(=O)c3cnn4ccc(N5CCOCC5)nc34)c(C(F)F)n2)CC1)C1CCC(N(C)c2cccc3c2C(=O)N(C2CCC(=O)NC2=O)C3=O)CC1 (stereo partly shown) [I-222] | 0.1 to 0.5 µM | 0.01 to 0.1 µM | –
CC[C@@H]1[C@H](F)C(=O)N[C@@H]1COc1ncc(C#C[C@H]2CC[C@H](CN(C)C3CCN(Cc4cccc5c4n(C)c(=O)n5C4CCC(=O)NC4=O)CC3)CC2)c2cc(C(N)=O)c(OC)cc12 (stereo partly shown) [I-189] | > 1 µM | 0.01 to 0.1 µM | DC50 [2, 4]: < 0.01 µM
CN1C(=O)C(C2CCC(=O)NC2=O)c2cccc(CCCOC3CCN(C[C@H]4CC[C@H](n5cc(NC(=O)c6cnn7ccc(NCCC(C)(C)O)nc67)c(C(F)F)n5)CC4)CC3)c21 (stereo partly shown) [I-288] | > 1 µM | < 0.01 µM | –
CN1C(=O)CCC(N2C(=O)c3cccc(NCCCOCCCS(=O)(=O)N(C)C(=O)[C@H]4CC[C@H](n5cc(NC(=O)c6cnn7ccc(N8C[C@H]9C[C@@H]8CO9)nc67)c(C(F)F)n5)CC4)c3C2=O)C1=O (stereo in doubt) [I-490, N-[3-(difluoromethyl)-1-[4-[methyl-[3-[3-[[2-(1-methyl-2,6-dioxo-3-piperidyl)-1,3-dioxo-isoindolin-4-yl]amino]propoxy]propylsulfonyl]carbamoyl]cyclohexyl]pyrazol-4-yl]-5-(2-oxa-5-azabicyclo [2.2.1]heptan-5-yl)pyrazolo [1,5-a]pyrimidine-3-carboxamide] | > 1 µM | – | DC50 [2, 5]: 0.1 to 1 µM; DC50 [2, 6]: > 1 µM
O=C1CCC(N2C(=O)c3cccc(NCCCOCCCN4CCN(c5ncc(-n6cc(NC(=O)c7cnn8ccc(N9CCOCC9)nc78)c(C(F)F)n6)cn5)CC4)c3C2=O)C(=O)N1 (stereo not shown) [I-456] | < 0.05 µM | – | DC50 [2, 5]: 0.1 to 1 µM; DC50 [2, 6]: 0.1 to 1 µM
CN1C(=O)CCC(n2c(=O)n(C)c3c(C#CCOC4CCN(C[C@H]5CC[C@H](n6cc(NC(=O)c7cnn8ccc(N9C[C@H]%10C[C@@H]9CO%10)nc78)c(C(F)F)n6)CC5)CC4)cccc32)C1=O (stereo partly drawn) [I-563, N-[3-(difluoromethyl)-1-[4-[[4-[3-[3-methyl-1-(1-methyl-2,6-dioxo-3-piperidyl)-2-oxo-benzimidazol-4-yl]prop-2-ynoxy]-1-piperidyl]methyl]cyclohexyl]pyrazol-4-yl]-5-[(1R,4R)-2-oxa-5-azabicyclo [2.2.1]heptan-5-yl] pyrazolo[1,5-a] pyrimidine-3-carboxamide] | – | – | IC50 ([1]; Homo sapiens, 96 h): > 1 µM
O=C1CCC(N2C(=O)c3cccc(N[C@H]4C[C@H](OC5CCN(C[C@H]6CC[C@H](n7cc(NC(=O)c8cnn9ccc(N%10CCOCC%10)nc89)c(C(F)F)n7)CC6)CC5)C4)c3C2=O)C(=O)N1 (stereo partly shown) [I-506] | 0.5 to 1 µM | – | DC50 [2, 5]: 0.01 to 0.1 µM; DC50 [2, 6]: < 0.01 µM
Cn1c(=O)n(C2CCC(=O)NC2=O)c2ccc(CN3CCC(CN4CCC(n5cc(NC(=O)c6coc(-c7ccnc(NCC8CC8)c7)n6)c(C(F)F)n5)CC4)CC3)cc21 (stereo not shown) [I-182] | > 1 µM | 0.1 to 1 µM | –
CN(C[C@H]1CC[C@H](n2cc(NC(=O)c3cnn4ccc(N5C[C@H]6CC5CO6)nc34)c(C(F)F)n2)CC1)C1CCC2(CC1)CC(Nc1cccc3c1C(=O)N(C1CCC(=O)NC1=O)C3=O)C2 (stereo partly shown) [I-454] | 0.05 to 0.1 µM | – | DC50 [2, 5]: 0.1 to 1 µM; DC50 [2, 6]: 0.01 to 0.1 µM
CN1C(=O)CCC(n2c(=O)n(C)c3c(CCCOC4CCN(C[C@H]5CC[C@H](n6cc(NC(=O)c7cnn8ccc(N9CCOCC9)nc78)c(C(F)F)n6)CC5)CC4)cccc32)C1=O (stereo partly shown) [I-195] | > 1 µM | 0.1 to 1 µM | –
CN(CC[C@H]1CN(CCCc2cccc3c2n(C)c(=O)n3C2CCC(=O)NC2=O)CCO1)C[C@H]1CC[C@H](n2cc(NC(=O)c3coc(-c4ccnc(NCC5CC5)c4)n3)c(C(F)F)n2)CC1 (stereo partly shown) [I-117] | > 1 µM | – | –
CC1C(=O)N(C2CCC(=O)NC2=O)c2cccc(C3CCN(CCCN(C)C[C@H]4CC[C@H](n5cc(NC(=O)c6coc(-c7ccnc(NCC8CC8)c7)n6)c(C(F)F)n5)CC4)CC3)c21 (stereo partly shown) [I-114] | – | – | IC50 [1]: 0.1 to 0.5 µM
Cn1c(=O)n(C2CCC(=O)NC2=O)c2ccc(CCCOC3CN(C[C@H]4CC[C@H](n5cc(NC(=O)c6coc(-c7ccnc(NCC8CC8)c7)n6)c(C(F)F)n5)CC4)C3)cc21 (stereo partly shown) [I-121] | > 1 µM | – | –
Cn1c(=O)n(C2CCC(=O)NC2=O)c2ccc(CN3CCN([C@@H]4CCN(C[C@H]5CC[C@H](n6cc(NC(=O)c7coc(-c8ccnc(NCC9CC9)c8)n7)c(C(F)F)n6)CC5)C4)CC3)cc21 (stereo partly shown) [I-110] | > 1 µM | – | –
